Measurements taken from the supplement of paper PMC4977894.
± gives the standard deviation of the averaged measurements.

Tests used:
[1] = test system: Homo sapiens (human subject panel, olfactory perception); assay: perceived odor familiarity rating (rating 0-100); higher = more familiar
Summary of the method: (§1)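 Across ten visits of 100 stimuli, 55 healthy human subjects aged 18–50 sniffed 1 mL of each molecule in paraffin oil in randomized order, at both high and low concentrations. The six lowest performers were excluded. Whenever a subject reported smelling a stimulus, they rated it on a computerized slider that started at 50 and had to be moved, and positions were converted to a 0–100 scale. Each familiarity, intensity and pleasantness figure is a mean across subjects.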

[2] = test system: Homo sapiens (human subject panel, olfactory perception); assay: perceived odor pleasantness rating (rating 0-100); higher = more pleasant
Summary of the method: as §1

[3] = test system: Homo sapiens (human subject panel, olfactory perception); assay: perceived odor intensity rating (rating 0-100); higher = stronger perceived smell
Summary of the method: as §1

[4] = odor dilution in paraffin oil: 1/100,000
[5] = odor dilution in paraffin oil: 1/10,000,000
[6] = odor dilution in paraffin oil: 1/1,000
[7] = odor dilution in paraffin oil: 1/10

Row | Structure (SMILES) | perceived odor familiarity rating [1, 4] | perceived odor familiarity rating [1, 5] | perceived odor pleasantness rating [2, 4] | perceived odor pleasantness rating [2, 5] | perceived odor intensity rating [3, 4] | perceived odor intensity rating [3, 5] | perceived odor familiarity rating [1, 6] | perceived odor pleasantness rating [2, 6] | perceived odor intensity rating [3, 6] | perceived odor familiarity rating [1, 7] | perceived odor pleasantness rating [2, 7] | perceived odor intensity rating [3, 7]
1 | CCCCO [butanol] | 35.8 ± 32 | 27 ± 30 | 42.7 ± 25 | 49.7 ± 26 | 19.8 ± 23 | 10.7 ± 19 |  |  |  |  |  | 
2 | CCCCOC(C)=O [butyl acetate] | 43.7 ± 31 |  | 61.1 ± 19 |  | 31.6 ± 24 |  | 67.5 ± 29 | 55.6 ± 27 | 76.5 ± 18 |  |  | 
3 | CCCCOC(=O)CCC [butyl butyrate] | 41.3 ± 30 |  | 48 ± 24 |  | 25.5 ± 29 |  | 49.7 ± 28 | 38.1 ± 26 | 57.9 ± 27 |  |  | 
4 | CCCC=O [butyraldehyde] | 41.8 ± 31 |  | 32.2 ± 21 |  | 51.9 ± 28 |  | 51.1 ± 29 | 17.7 ± 18 | 83.4 ± 15 |  |  | 
5 | CCCC(=O)O [butyric acid] | 50.2 ± 34 |  | 16 ± 18 |  | 76.8 ± 23 |  | 53.1 ± 31 | 21.1 ± 27 | 86.8 ± 13 |  |  | 
6 | CCCCCC(=O)O [caproic acid] | 45.1 ± 29 |  | 19.4 ± 19 |  | 66.5 ± 28 |  | 46.7 ± 33 | 14.3 ± 19 | 84.3 ± 15 |  |  | 
7 | C=C(C)C1CC=C(C)C(OC(C)=O)C1 (stereo unspecified) [carvyl acetate] | 37.2 ± 30 |  | 44.1 ± 23 |  | 38.6 ± 33 |  | 43.5 ± 32 | 27.2 ± 22 | 75 ± 25 |  |  | 
8 | OC/C=C/c1ccccc1 [cinnamyl alcohol] | 53.7 ± 33 |  | 42.9 ± 28 |  | 60.3 ± 28 |  | 52.6 ± 34 | 47.4 ± 31 | 75.8 ± 21 |  |  | 
9 | CCCCCC/C=C\CO [cis-2-Nonen-1-ol] | 40.8 ± 30 |  | 36 ± 21 |  | 54.7 ± 32 |  | 46.3 ± 30 | 34.7 ± 25 | 77.9 ± 21 |  |  | 
10 | CC/C=C\CCO [cis-3-Hexen-1-ol] | 60.5 ± 30 |  | 60 ± 22 |  | 39.7 ± 28 |  | 69.6 ± 30 | 51 ± 31 | 81.9 ± 16 |  |  | 
11 | CC/C=C\CCOC(=O)c1ccccc1 [cis-3-Hexenyl benzoate] | 34 ± 23 |  | 51.2 ± 13 |  | 28.1 ± 26 |  | 36.3 ± 28 | 40.8 ± 19 | 40.4 ± 31 |  |  | 
12 | CC/C=C\CCOC(=O)C(C)C [cis-3-Hexenyl isobutyrate] | 40.1 ± 30 |  | 40.8 ± 22 |  | 30 ± 28 |  | 55.4 ± 31 | 47.1 ± 29 | 73.3 ± 25 |  |  | 
13 | CC/C=C\CCOC(=O)C(C)O (stereo not drawn) [cis-3-Hexenyl lactate] | 38.6 ± 30 |  | 46.7 ± 22 |  | 30.3 ± 28 |  | 57.1 ± 31 | 51.7 ± 26 | 67.2 ± 29 |  |  | 
14 | CC/C=C\CCOC(=O)Cc1ccccc1 [cis-3-Hexenyl phenylacetate] | 37.5 ± 32 |  | 52.2 ± 25 |  | 14.4 ± 23 |  | 41.3 ± 30 | 40.1 ± 26 | 51 ± 31 |  |  | 
15 | CC/C=C\CCOC(=O)CC [cis-3-Hexenyl propionate] | 30.7 ± 28 |  | 52 ± 20 |  | 20.4 ± 23 |  | 60.9 ± 30 | 64.4 ± 28 | 61.7 ± 26 |  |  | 
16 | CC/C=C\CCOC(=O)c1ccccc1O [cis-3-Hexenyl salicylate] | 36.8 ± 33 |  | 49.8 ± 24 |  | 9.75 ± 16 |  | 40.2 ± 26 | 48.1 ± 26 | 49.2 ± 30 |  |  | 
17 | C/C=C(\C)C(=O)OCC/C=C\CC [cis-3-Hexenyl tiglate] |  |  |  |  |  |  | 47.9 ± 30 | 47.6 ± 28 | 45.7 ± 30 | 53.4 ± 31 | 47.2 ± 31 | 79.2 ± 18
18 | CC/C=C\CCOC(C)=O [cis-3-hexenyl acetate] | 64.7 ± 30 |  | 70.9 ± 20 |  | 41 ± 31 |  | 73.6 ± 28 | 63.8 ± 30 | 76.7 ± 22 |  |  | 

Row | Structure (SMILES) | perceived odor familiarity rating [1, 4] | perceived odor familiarity rating [1, 5] | perceived odor pleasantness rating [2, 4] | perceived odor pleasantness rating [2, 5] | perceived odor intensity rating [3, 4] | perceived odor intensity rating [3, 5] | perceived odor familiarity rating [1, 6] | perceived odor pleasantness rating [2, 6] | perceived odor intensity rating [3, 6] | perceived odor familiarity rating [1, 7] | perceived odor pleasantness rating [2, 7] | perceived odor intensity rating [3, 7]
19 | CCCCC/C=C\CCCO [cis-4-Decen-1-ol] | 40.3 ± 32 |  | 53.6 ± 27 |  | 29.2 ± 32 |  | 49.8 ± 29 | 49.2 ± 25 | 65.4 ± 26 |  |  | 
20 | CC/C=C\CCC=O [cis-4-Heptenal] | 46.1 ± 33 | 45.2 ± 31 | 28.7 ± 25 | 32.5 ± 26 | 66.8 ± 29 | 56.2 ± 31 |  |  |  |  |  | 
21 | CC/C=C\CCCCO [cis-5-Octen-1-ol] | 59.5 ± 29 |  | 66.6 ± 21 |  | 40.6 ± 30 |  | 69.2 ± 27 | 59.3 ± 28 | 75.7 ± 20 |  |  | 
22 | O=c1ccc2ccccc2o1 [coumarin] |  |  |  |  |  |  | 55.9 ± 31 | 65.1 ± 25 | 62.8 ± 26 | 63.8 ± 30 | 67.2 ± 26 | 77.5 ± 16
23 | CC(C)c1ccc(C=O)cc1 [cuminaldehyde] | 31.3 ± 26 |  | 58.1 ± 26 |  | 16.2 ± 20 |  | 50.9 ± 35 | 51.2 ± 28 | 59.1 ± 31 |  |  | 
24 | C=C(C)[C@H]1CC=C(C)CC1 [d-Limonene] | 41.1 ± 28 |  | 30.9 ± 25 |  | 45.4 ± 36 |  | 43.6 ± 28 | 52.6 ± 21 | 29.6 ± 26 |  |  | 
25 | CCCCCCCCCC=O [decanal] |  |  |  |  |  |  | 44 ± 30 | 33.3 ± 23 | 59.9 ± 25 | 51.9 ± 35 | 28.7 ± 23 | 78.9 ± 20
26 | CCCCCCCCCC(=O)O [decanoic acid] |  |  |  |  |  |  | 40.6 ± 29 | 28.7 ± 19 | 50.2 ± 30 | 47.4 ± 34 | 28.3 ± 26 | 75.9 ± 22
27 | CCCCCCCCCCO [decanol] | 39.4 ± 32 |  | 46.8 ± 25 |  | 29.1 ± 24 |  | 49.6 ± 33 | 38.6 ± 28 | 66 ± 27 |  |  | 
28 | CCCCCC1CCCC(=O)O1 (stereo unspecified) [delta-Decalactone] | 60.8 ± 29 |  | 72.4 ± 20 |  | 52 ± 28 |  | 62.5 ± 28 | 69.3 ± 22 | 65.7 ± 28 |  |  | 
29 | CC1CCCC(=O)O1 (stereo unspecified) [delta-Hexalactone] | 32.7 ± 28 |  | 50.5 ± 21 |  | 18.4 ± 21 |  | 38.8 ± 31 | 45 ± 25 | 48.4 ± 32 |  |  | 
30 | CCCCCCCCCC1CCCC(=O)O1 (stereo unspecified) [delta-Tetradecalactone (replicate)] | 26 ± 28 |  | 51.2 ± 20 |  | 13.9 ± 20 |  | 37.7 ± 24 | 41.9 ± 20 | 33 ± 30 |  |  | 
31 | CCCCCCCCCC1CCCC(=O)O1 (stereo unspecified) [delta-Tetradecalactone] | 33 ± 25 |  | 48.1 ± 22 |  | 20.7 ± 24 |  | 47.2 ± 27 | 45.5 ± 24 | 33.7 ± 26 |  |  | 
32 | CCCCCCC1CCCC(=O)O1 (stereo unspecified) [delta-Undecalactone] | 41.4 ± 30 |  | 60.7 ± 25 |  | 34.4 ± 30 |  | 51.5 ± 33 | 60.7 ± 31 | 64.9 ± 28 |  |  | 
33 | CCOC(=O)CCC(=O)OCC [diethyl succinate] |  |  |  |  |  |  | 44.4 ± 30 | 57.7 ± 24 | 47.1 ± 29 | 53.4 ± 30 | 60.9 ± 22 | 70.6 ± 24
34 | COC(=O)CCC(=O)OC [dimethyl succinate] |  |  |  |  |  |  | 43.2 ± 29 | 43.6 ± 22 | 53.9 ± 29 | 46.2 ± 31 | 49.1 ± 27 | 63.2 ± 28
35 | CCCSSCCC [dipropyl disulfide] | 65.5 ± 30 |  | 40.1 ± 28 |  | 59.7 ± 31 |  | 65.6 ± 31 | 35.9 ± 26 | 79.9 ± 21 |  |  | 
36 | O=C1CCCCCN1 [epsilon-Caprolactam] |  |  |  |  |  |  | 39.4 ± 35 | 40.9 ± 26 | 31.3 ± 33 | 31.2 ± 28 | 46 ± 25 | 30.6 ± 30
